# Experiments:
# [1] = system: Vimentin 3; experiment: Cell culture experiments after ET-1 treatment, Western blot; format: cell-based; conditions: cell culture (DU145)
# Experimental: Furthermore, cell culture experiments were conducted after ET-1 treatment over different time points and analyzed via Western blot the expression of the different proteins mentioned above. For the ET-1 ELISA and Vim3 ELISA 100 μl of serum was used. DU145 cells were cultured under normal conditions and treated with the substances mentioned. Cells were scratched before treatment. The ET-receptors were blocked 1 h before ET-1 stimulation. Immunofluorescence was performed on paraffin-embedded prostate cancer samples. This immunofluorescence has been carried out as described in Example 1 above. In addition to Vim3-specific antibodies, also Atg7- and pg3-specific primary antibodies have been used.
# [2] = system: Vim3; experiment: Western blot with densitometry of Vim3 in total cell extract of stimulated MCF-7; format: cell-based; conditions: combined Tam plus ET-1 pretreatment versus ET-1 alone, p<0.001
# Experimental: WB with 20 μg non-precipitated total cell extract of stimulated MCF-7. The corresponding densitometric analysis of the present bands of a protein analysis on the WB membrane where the intense band of Vim3 (47 kDa) is striking as compared to the very faint band of GAPDH in the same sample is shown with ImageJ, where the background and the control had been subtracted.
# Furthermore, the effect of Tam was studied with regard to its translational capacity for Vim3 after a combined Tam plus ET-1 pretreatment versus ET-1 alone. […] Tam upregulates Vim3.
# [3] = system: ET-1; experiment: Western blot of nuclear extracts of treated MCF-7 breast cancer cells; format: cell-based; conditions: nuclear extracts from breast cancer cells after Tamoxifen treatment
# Experimental: (§1) The dependency of the overexpression of Vim3 due to ET-1 presence and after tamoxifen treatment was shown in cell culture experiments and analyzed via Western blot. The expression of Vim3and ET-1 was analyzed in paraffin-embedded tissue samples of patients with metastatic breast cancers after tamoxifen treatment. MCF-7 cells were cultured under normal conditions and treated with the mentioned substances. Tamoxifen treatment was performed 1 hour prior ET-1 or β-estradiol treatment. Nuclear extracts were isolated and analyzed via Western blot under standard conditions. A Proximity Ligation Assay (PLA) assay was performed according to the manufacturer's protocol. From cells after treatment, the mRNA was isolated and qRT-PCR was performed. Immunohistochemistry was performed according to standardized conditions.
# [4] = system: Vim3; experiment: Vim3 expression analysis by qRT-PCR in treated MX-1 cells; format: cell-based; conditions: combinational stimulation with Tam
# Experimental: MCF-7 cells were cultured under normal conditions and treated with the mentioned substances. Tamoxifen treatment was performed 1 hour prior ET-1 or β-estradiol treatment. […] From cells after treatment, the mRNA was isolated and qRT-PCR was performed.
# [5] = system: Vim3; experiment: Immunohistochemistry of Vim3 in breast cancer specimens and metastases after tamoxifen treatment; format: in vivo, human
# Experimental: as §1
# Vim3 Expression in Invasive Ductal Breast Carcinoma, and Its Metastases From the pre-evaluation of breast cancer specimen via tissue-microarray it was known that ET-1 and Vim3 staining could be detected in tumor cells, while vimentin full length was only positive in the interstitial tissue. To analyze the expression of the newly described target gene Vim3 in more detail, its expression was investigated in […] biopsies and their respective resection specimens of breast cancer cases. […] In each biopsy, Vim3 was detected, either in nuclear (20/25; strong expression: 3+) and/or diffuse cytoplasmic (25/25) localization. After Tam treatment, seventeen respective resection specimens were still diffusely positive for Vim3, now mainly in a cytoplasmic localization (12/17), with nuclear localization additionally found in 5 specimens (5/17). In 4 cases, lymph node but no other metastases were reported (4/28). In contrast, 7 cases developed organ metastases (7/28), of which 3 had additional lymph node metastases.
# The expression of Vim3 and ERB was investigated in resection specimens and their metastases. In a set of 8 cases positive for ERa after tam pretreatment, it was found again a diffuse cytoplasmic expression of Vim3. In addition, in […] metastases (pleura 2×, skin 2×, bone 3×, uterus 1×, liver 1×, soft tissue 1x) Vim3 was also expressed (cytoplasm: 12/12; additional nuclear expression 5/12). In 7 of the 12 metastases, a 3+ nuclear expression for ERB was found, which was in all investigated cases accompanied by Vim3 expression.
# [6] = system: Vim3; experiment: Vim3 expression analysis by qRT-PCR in treated MCF-7 cells; format: cell-based; conditions: combined pretreatment with tamoxifen and β-estradiol/ET-1, p<0.01
# Source text: FIG. 25A-FIG. 25C show Vim3 expression analysis of treated MX-1 (FIG. 25A; FIG. 25B) and MCF-7 (FIG. 25C) cells by qRT-PCR analysis. […] In both diagrams the increase in Vim3 expression up to ca 700 RFU upon a combinational stimulation with Tam is decisive. Data shown is derived from quadruplicates from an independent experiment. *P<0.05, **P<0.01 and ***P<0.001.
# as §1
# [7] = breast cancer resection specimens, positive/total
Structure (SMILES),Vimentin 3 production after ET-1 treatment [1],formation of Vim3 protein (Western blot densitometry) [2],ET-1 signal in the nuclear fraction [3],ET-1 signal in the nuclear fraction ([3]; listed as Tamoxifen),Vim3 expression (qRT-PCR) [4] [RFU],mastectomies with cytoplasmic Vim3 staining after Tam ([5]; biopsies before Tam: nuclear positivity 19/21),"resection specimens with additional nuclear Vim3 localization after Tam treatment [5, 7]","resection specimens with cytoplasmic Vim3 localization after Tam treatment [5, 7]",Vim3 level in tamoxifen-treated tumors and metastases ([5]; patients with metastatic breast cancers after tamoxifen treatment),mRNA Vim3 expression [6]
"CC[C@H](C)[C@H](NC(=O)[C@H](CC(=O)O)NC(=O)[C@H](CC(C)C)NC(=O)[C@H](Cc1c[nH]cn1)NC(=O)[C@@H]1CSSC[C@H](N)C(=O)N[C@@H](CO)C(=O)N[C@H]2CSSC[C@H](NC(=O)[C@H](CCC(=O)O)NC(=O)[C@H](CCCCN)NC(=O)[C@H](CC(=O)O)NC(=O)[C@H](CCSC)NC(=O)[C@H](CC(C)C)NC(=O)[C@H](CO)NC(=O)[C@H](CO)NC2=O)C(=O)N[C@@H](C(C)C)C(=O)N[C@@H](Cc2ccc(O)cc2)C(=O)N[C@@H](Cc2ccccc2)C(=O)N1)C(=O)N[C@H](C(=O)N[C@@H](Cc1c[nH]c2ccccc12)C(=O)O)[C@@H](C)CC [ET-1, Endothelin-1]",produce more Vimentin 3,,,,,,,,,
CC/C(=C(\c1ccccc1)c1ccc(OCCN(C)C)cc1)c1ccccc1 [tamoxifen],,highly statistically significant induced formation of Vim3,ET-1 expression is triggered,significant upregulation of the ET-1 signal in the nuclear fraction,~700,13/17,5/17,12/17,"an increase of Vim3 was found in both, the tumor as well as the metastases",clear increase in mRNA Vim3 expression

# From US20250122581A1, “TUMOR AND METASTASIZING MARKER” (UNIVERSITAET ZU KOELN, priority 2017, published 2025)
